Test system: melanoma cell line B16F10
Assay: MTT cytotoxicity evaluation of pretreatment substances
Type: cell-based, mouse
Conditions: for viability of tumor cells: B16F10, 24 hours
Description: To conduct the cytotoxicity evaluation of each pretreatment substance (tunicamycin and metformin) on the melanoma cell line B16F10, 3-(4,5-dimethylthiazol-2-yl)-2,5-diphenyltetrzolium bromide (MTT) assay was performed. First, 10^4 cells were seeded in each 96-well plate and cultured for 24 hours. Then, cells in each well were treated with each substance at a given concentration and cultured for an additional 24 hours. After the supernatant was discarded, the cells were treated with an MTT-containing medium at the concentration of 0.5 mg/ml and left for two hours, and the intracellular formazan crystals were dissolved in each well using dimethylsulfoxide. Then, the cytotoxicity was analyzed by measuring the absorbance at 570 nm by using a microplate reader.

Substance: tunicamycin
- viability of tumor cells (concentrations of 0.05 μM or less): no significant decrease
- viability of tumor cells (concentrations of 0.1 μM or more): decrease in cell viability
- highest concentration at which no decrease in cell viability was observed (B16F10, MTT, 24 hours): 0.05 µM
